# Source: patent publication US12398123B2, “Chemical inhibition of the E3 ligase subunit FBXO7 confers neuroprotection and anti-inflammatory activity by stabilizing mitochondria” (University of Pittsburgh—Of the Commonwealth System of …, priority 2017, dated 2025)
# Peptide text beside a SMILES is read from it. * marks the point of attachment. Cbz = O=C(OCc1ccccc1)*
# Experiments:
# [1] = tested on: P. aeruginosa (PA103) lung inflammatory injury; assay: experimental pneumonia: mice given PA103 i.t.
# PINK1 [2] = assay type: cell-based, human; conditions: SHSY5Y PINK1-Flag, compound 3 h, cycloheximide 10 μg/ml 1 h
# From the text: FIGS. 7A-7H. […] FIG. 7A. […] FIG. 7B. […] FIG. 7C. […] FIG. 7D-7E. […] Scale bar=100 μm.
# [3] = intracerebral ventricular infusion in mice for 2 weeks (tolerability); assay type: in vivo, mouse; conditions: 10 ug/ml via intracerebral ventricular infusion for 2 weeks
# Description: BC 1464 was administered in artificial CSF with DMSO by intracerebroventricular pump to C5bl/6 mice.
# [4] = tested on: cytokine release from human lung explants; assay: human lung slices challenged with LPS: TNFα ELISA of supernatant; conditions: compound 4 h, then LPS 100 ng/ml 4 h
# H9C2 cells [5] = assay: CCCP triggered mitochondrial injury in H9C2 cells, Mitosense Red and Annexin V flow cytometry; assay type: cell-based, rat; conditions: 100 ng/ml 16 h, CCCP 20 μM 2 h; CCCP alone 17.2%
# primary fibroblasts = assay: 6-OHDA model in primary fibroblasts; conditions: 6-OHDA 300 M (unit prefix printed as image), 19 h
# H9C2 cells [6] = assay: mitochondrial membrane potential after CCCP in H9C2 cells, JC1 staining, confocal microscopy; conditions: 100 ng/ml 16 h, CCCP 20 μM 2 h
# [7] = tested on: late neural progenitor cells differentiated from a human iPSC line; assay: DMSO-induced cell death in late neural progenitor cells from an SNCA triplication iPSC line; assay type: cell-based; conditions: 5 ng/mL for 1 wk
# Description: Methods. Late neural progenitor cells were derived from an iPSC line from a PD patient with SNCA gene triplication, as previously described (D'Aiuto et al. Organogenesis 10(4): 365-377). […] Images were acquired with a 40× oil objective (1.30 NA) on an Olympus IX71 microscope using Olympus CellSens V1.17 with a DP80 camera. Cell death was assessed by counting condensed/fragmented nuclei. Results.
# Pink1 [8] = assay: target validation: Pink1 levels in BEAS-2B cells with control or Fbxo7 siRNA; conditions: Fbxo7 siRNA 3 days, compound 18 h
# PINK1 [9] = assay: human lung slices challenged with LPS: Pink1 immunoblotting; conditions: compound 4 h, then LPS 100 ng/ml 4 h
# Pink1 [10] = assay: Pink1 protein stability (CHX chase) in BEAS-2B cells; conditions: 1 μg/ml for 16 h, then CHX 40 μg/ml
# SH-SY5Y cells = assay: MPP+ elicited injury in SH-SY5Y cells, AlamarBlue cell viability; conditions: 5 μg/ml with MPP+ for 24 h, relative to BC1465
# primary cortical neurons = assay: morphological injury of GFP-transfected primary cortical neurons challenged with MPP+; conditions: MPP+ 24 h
# [11] = tested on: TNF release from human PBMCs; assay: LPS stimulated TNF secretion from PBMCs (ELISA); assay type: cell-based; conditions: 2 h pretreatment, then LPS 10 ng/ml 4 h
# H9C2 cells [12] = assay: tBHP-induced mitochondrial injury in H9C2 cells, MitoTracker Red flow cytometry; conditions: 100 ng/ml 16 h, tBHP 100 μM 45 min
# Pink1 [13] = assay: Pink1 protein decay in BEAS-2B cells with proteasomal or lysosomal inhibitors and CHX; assay type: cell-based; conditions: 30 min pretreatment (MG132 20 μM, leupeptin 100 μM), then CHX 40 μg/ml
# Description: FIGS. 1A-1E. Fbxo7 mediates Pink1 polyubiquitylation and proteasomal degradation. FIG. 1A. BEAS-2B cells were pretreated with MG132 (20 μM), leupeptin (100 μM), or diluent (control, CON) for 30 min, and then were treated with CHX (40 μg/ml) to assay protein decay. The cell lysates were obtained at the indicated time points for immunoblotting. FIG. 1B. BEAS-2B cells were nucleofected with V5-tagged Fbxo7 plasmid at indicated amounts and incubated for 48 h, the whole cell lysates were subjected to immunoblotting. FIG. 1C. BEAS-2B cells were nucleofected with 4 individual shRNAs respectively and analyzed by immunoblotting. FIG. 1D. BEAS-2B cells were nucleofected with control shRNA or Fbxo7 shRNA for 72 h, and then treated with CHX (40 μg/ml). The cells were collected at indicated time points for half-life analysis. FIG. 1E. In vitro ubiquitylation assays were performed with synthesized Pink1 combined with indicated recombinant proteins.
# Cell Culture and Transfection.
# Pink1 undergoes rapid proteolysis in cells, and the cleaved Pink1 fragment may be degraded through the N-end rule pathway. To test if full length Pink1 is subjected to ubiquitin mediated degradation, we evaluated the ability of proteasomal or lysosomal inhibitors to regulate stability of the kinase. […]
# [14] = 5 mg/kg intraperitoneal, 18 h, compared to vehicle control or BC1465
structure (smiles),measurement,setting,value
O=C(CCCn1c(SCC(=O)NCC2CCCO2)nc2ccccc2c1=O)NCc1ccccc1 (stereo not drawn) [BC1464],lavage bacteria counts,"[1]; 5 mg/kg intraperitoneal at time of PA103, 18 h",no effect
same,lavage cell numbers,[1]; [14],significantly decreased
same,lavage cytokine levels,[1]; [14],significantly decreased
same,lavage protein,[1]; [14],significantly decreased
same,PINK1 expression in the presence of cycloheximide,PINK1 [2],stabilizes PINK1 expression
same,toxicity / survival,[3],no overt toxicity
same,cytokine release in response to endotoxin,[4],inhibit cytokine release
same,CCCP damaged (depolarized) mitochondria,H9C2 cells [5],10.5%
same,protection in the 6-OHDA model,primary fibroblasts,conferred protection
same,mitochondrial membrane potential disrupted by CCCP (JC1),H9C2 cells [6],maintains the mitochondrial membrane potential
same,toxicity elicited by DMSO (condensed/fragmented nuclei),[7],prevented toxicity elicited by DMSO
same,Pink1 levels after Fbxo7 siRNA treatment,Pink1 [8],not observed
same,Pink1 protein levels in human lung explants,PINK1 [9],selectively increase Pink1 protein levels
same,Pink1 protein stability upon inhibiting protein synthesis,Pink1 [10],largely stabilized Pink1
same,MPP+ elicited injury (cell viability),SH-SY5Y cells,significantly decreased MPP+ elicited injury
same,retraction and simplification of the dendritic arbor,"primary cortical neurons; 5 μg/ml, versus BC1465",protect against retraction and simplification of the dendritic arbor
same,cell death in primary cortical neurons,primary cortical neurons,reduce cell death
same,reduction of LPS stimulated release of TNF,[11]; 1 ng/ml,~37%
same,LPS stimulated release of TNF,[11]; 10 ng/ml,potently blocked
same,protection from tBHP-induced mitochondrial injury,H9C2 cells [12],largely protected mitochondria from oxidative stress
same,mitochondrial injury (damaged mitochondria) after tBHP,"H9C2 cells [12]; tBHP with vehicle 45.3%, untreated 4.1%",26.1%
"N#Cc1ccccc1Cn1c(=O)n(CCCC(=O)NCc2ccc3c(c2)OCO3)c(=O)c2ccccc21 [BC1465, reference compound]",Pink1 protein stability upon inhibiting protein synthesis,Pink1 [10],no effect on Pink1 protein stability
CC(C)C[C@@H](C=O)NC(=O)[C@H](CC(C)C)NC(=O)[C@H](CC(C)C)NC(=O)OCc1ccccc1 [MG132] (Cbz-Leu-Leu-Leu-aldehyde),Pink1 accumulation / turnover,Pink1 [13],"accumulated not only the Pink1 fragment, but also full length Pink1"
CC(=O)N[C@@H](CC(C)C)C(=O)N[C@@H](CC(C)C)C(=O)N[C@H](C=O)CCCNC(=N)N [leupeptin],Pink1 accumulation / turnover,Pink1 [13],little impact on basal Pink1 turnover
